Laboratory results as given in article PMC10303271, “Synthesis and Receptor Binding Studies of α5 GABAAR Selective Novel Imidazodiazepines Targeted for Psychiatric and Cognitive Disorders” (Molecules, 2023).

Experiments:
5-HT2A = target: T1, 5-HT2A (Homo sapiens, UniProt P28223); assay: PDSP primary binding 5-HT2A; settings: 1.5 h; primary binding, 10,000 nM; last figure of the line = mean of the 4 before it; read-out: 5-HT2A, PDSP raw data, mean
T1 construct: purchased NIMH Psychoactive Drug Screening Program (PDSP)
T1 sequence (P28223 whole entry): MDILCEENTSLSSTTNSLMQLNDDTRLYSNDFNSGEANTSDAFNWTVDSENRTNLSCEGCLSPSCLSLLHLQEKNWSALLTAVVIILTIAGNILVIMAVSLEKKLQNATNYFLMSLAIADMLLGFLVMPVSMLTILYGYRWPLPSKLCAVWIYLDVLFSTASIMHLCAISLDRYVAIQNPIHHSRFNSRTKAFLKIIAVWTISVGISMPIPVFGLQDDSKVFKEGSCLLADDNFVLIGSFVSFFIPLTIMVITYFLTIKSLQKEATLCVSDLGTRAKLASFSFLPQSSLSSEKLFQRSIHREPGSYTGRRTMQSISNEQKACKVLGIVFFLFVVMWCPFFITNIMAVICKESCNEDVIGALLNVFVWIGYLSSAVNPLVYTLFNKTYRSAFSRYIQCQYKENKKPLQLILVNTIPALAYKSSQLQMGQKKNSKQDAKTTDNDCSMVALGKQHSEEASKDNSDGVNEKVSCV
Description: (§1) To determine if any off-target receptor-binding effects are present, all the novel ligands were sent to the National Institute of Mental Health (NIMH), Psychoactive Drug Screening Program (PDSP). The ligands were screened over a panel of 47 receptors, ion channels, and transporters to determine any other possible interactions with […]. The hERG-binding was also determined. […] No binding of the test compounds to calcium channels was observed. […] It is necessary to screen the compounds for hERG-binding during the early process of drug discovery. The unintentional binding of many drugs to hERG can cause blockade of hERG K+ channels in the heart, which can cause many side effects including cardiac arrhythmias and sudden death. […] All of the α5 imidazodiazepines were tested for hERG-binding.
(§2) The NIMH PDSP assay protocol book [https://kidbdev.med.unc.edu/databases/PDSP%20Protocols%20II%202013-03-28.pdf accessed on 23 April 2023]. describes the protocols for primary and secondary radio-ligand binding assays. These assays were carried out in a final volume of 125 µL per well in the appropriate binding buffer.
(§3) The binding of a ligand to a receptor, ion channel, or transporter was determined in the […] of 10 µM of the appropriate reference compound. […] Plates were incubated in the dark for 90 min at rt, and the reactions were stopped by vacuum filtration onto 0.3% polyethyleneimine (PEI) soaked 96-well filter mats using a 96-well Filtermateharvester. This was followed by three washes with cold PBS buffer. Radioactivity was then counted on a Microbeta counter. Nonlinear regression was used to analyze the data with N = 6 replicates.

Beta2 = target: T2, Beta2 (Homo sapiens, UniProt P07550); assay: PDSP primary binding Beta2; settings: 1.5 h; primary binding, 10,000 nM; last figure of the line = mean of the 4 before it; read-out: Beta2, PDSP raw data, mean
T2 construct: purchased NIMH Psychoactive Drug Screening Program (PDSP)
T2 sequence (P07550 whole entry): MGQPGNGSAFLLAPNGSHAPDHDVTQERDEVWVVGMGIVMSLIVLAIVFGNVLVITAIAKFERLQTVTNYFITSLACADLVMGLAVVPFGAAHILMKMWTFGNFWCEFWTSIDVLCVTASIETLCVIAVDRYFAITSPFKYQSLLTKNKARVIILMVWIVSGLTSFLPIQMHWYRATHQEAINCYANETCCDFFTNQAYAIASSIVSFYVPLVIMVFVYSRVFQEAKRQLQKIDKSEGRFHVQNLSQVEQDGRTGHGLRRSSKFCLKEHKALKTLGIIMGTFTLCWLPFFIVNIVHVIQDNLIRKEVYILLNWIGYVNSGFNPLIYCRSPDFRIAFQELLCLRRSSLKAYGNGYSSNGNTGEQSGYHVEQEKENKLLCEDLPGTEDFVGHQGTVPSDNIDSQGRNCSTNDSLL
Description: as §1, §2, §3

MOR = target: T3, MOR (Homo sapiens, UniProt P35372); assay: PDSP radioligand binding at MOR; settings: 1.5 h; primary binding, 10,000 nM; last figure of the line = mean of the 4 before it; read-out: MOR, PDSP raw data, mean
T3 construct: purchased NIMH Psychoactive Drug Screening Program (PDSP)
T3 sequence (P35372 whole entry): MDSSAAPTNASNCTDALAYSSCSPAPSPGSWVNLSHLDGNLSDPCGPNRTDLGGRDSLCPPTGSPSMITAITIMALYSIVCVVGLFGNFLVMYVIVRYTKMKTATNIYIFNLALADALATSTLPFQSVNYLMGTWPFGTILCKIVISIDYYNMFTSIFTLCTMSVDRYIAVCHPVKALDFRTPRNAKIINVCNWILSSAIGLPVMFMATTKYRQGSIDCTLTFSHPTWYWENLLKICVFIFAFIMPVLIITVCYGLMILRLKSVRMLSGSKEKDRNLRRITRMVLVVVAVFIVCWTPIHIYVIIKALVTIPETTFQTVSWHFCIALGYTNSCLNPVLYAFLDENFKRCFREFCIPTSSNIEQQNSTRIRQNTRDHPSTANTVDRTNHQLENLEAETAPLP
From the text: Opioid receptors are a family of inhibitory G-coupled protein receptors where opioids act as the ligand. The kappa opioid receptors (KOR), µ and δ opioid receptors (MOR and DOR), and nociception opioid receptor (NOP) fall under the family of opioids receptors. It has been reported that oxadiazole imidazodiazepines can mediate analgesic and anti-inflammatory properties mediated also by the κ opioid receptor (KOR). The binding at KOR is usually silent. The affinities of the test compounds for KOR, DOR, and MOR were determined using radioligand binding assays at a screening concentration of 10,000 nM in collaboration with the National Institute of Mental Health’s Psychoactive Drug Screening Program (PDSP), as mentioned before. Concentration-dependent experiments were conducted to determine Ki values for the compounds that exceeded more than 50% radioligand displacement in primary binding assays.
as §2, §3

Alpha2C = target: T4, Alpha2C (Homo sapiens, UniProt P18825); assay: PDSP primary binding Alpha2C; settings: 1.5 h; primary binding, 10,000 nM; last figure of the line = mean of the 4 before it; read-out: Alpha2C, PDSP raw data, mean
T4 construct: purchased NIMH Psychoactive Drug Screening Program (PDSP)
T4 sequence (P18825 1-462): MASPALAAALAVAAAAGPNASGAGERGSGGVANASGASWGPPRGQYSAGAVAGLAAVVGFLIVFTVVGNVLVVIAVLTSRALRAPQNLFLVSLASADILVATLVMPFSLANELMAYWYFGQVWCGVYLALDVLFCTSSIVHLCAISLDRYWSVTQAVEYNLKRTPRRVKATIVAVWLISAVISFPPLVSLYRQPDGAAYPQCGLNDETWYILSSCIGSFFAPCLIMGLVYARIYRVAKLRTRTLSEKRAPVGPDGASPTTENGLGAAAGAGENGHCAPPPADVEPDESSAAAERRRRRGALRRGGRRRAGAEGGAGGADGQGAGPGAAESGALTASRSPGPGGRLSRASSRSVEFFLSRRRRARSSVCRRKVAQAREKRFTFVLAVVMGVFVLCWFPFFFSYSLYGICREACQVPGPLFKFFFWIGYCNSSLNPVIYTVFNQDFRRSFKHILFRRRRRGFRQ
Description: as §1, §2, §3

Alpha4Beta2 (Rat Brain) = target: T5, Alpha4Beta2 (Rat Brain) (Rattus norvegicus, UniProt P09483+P12390); assay: PDSP primary binding Alpha4Beta2 (Rat Brain); settings: primary binding, 10,000 nM; last figure of the line = mean of the 4 before it; read-out: Alpha4Beta2 (Rat Brain), PDSP raw data, mean
T5 construct: purchased NIMH Psychoactive Drug Screening Program (PDSP)
T5 sequence (P09483 31-630): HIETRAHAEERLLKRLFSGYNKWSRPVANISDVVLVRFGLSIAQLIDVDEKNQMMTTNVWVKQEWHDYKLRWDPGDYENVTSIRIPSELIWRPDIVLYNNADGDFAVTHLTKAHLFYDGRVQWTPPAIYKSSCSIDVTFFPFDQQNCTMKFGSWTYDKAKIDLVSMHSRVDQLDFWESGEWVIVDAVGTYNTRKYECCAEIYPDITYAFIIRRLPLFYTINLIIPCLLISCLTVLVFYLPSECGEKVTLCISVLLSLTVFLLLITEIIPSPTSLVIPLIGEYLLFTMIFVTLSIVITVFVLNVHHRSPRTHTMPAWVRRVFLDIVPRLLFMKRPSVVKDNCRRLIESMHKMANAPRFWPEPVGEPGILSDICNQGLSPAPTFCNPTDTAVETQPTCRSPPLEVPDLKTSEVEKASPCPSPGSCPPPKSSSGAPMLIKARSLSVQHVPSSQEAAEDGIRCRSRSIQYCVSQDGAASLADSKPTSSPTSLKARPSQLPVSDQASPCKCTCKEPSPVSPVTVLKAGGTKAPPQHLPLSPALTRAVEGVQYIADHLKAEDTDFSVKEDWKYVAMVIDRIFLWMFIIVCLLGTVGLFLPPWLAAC
T5 sequence (P12390 25-500): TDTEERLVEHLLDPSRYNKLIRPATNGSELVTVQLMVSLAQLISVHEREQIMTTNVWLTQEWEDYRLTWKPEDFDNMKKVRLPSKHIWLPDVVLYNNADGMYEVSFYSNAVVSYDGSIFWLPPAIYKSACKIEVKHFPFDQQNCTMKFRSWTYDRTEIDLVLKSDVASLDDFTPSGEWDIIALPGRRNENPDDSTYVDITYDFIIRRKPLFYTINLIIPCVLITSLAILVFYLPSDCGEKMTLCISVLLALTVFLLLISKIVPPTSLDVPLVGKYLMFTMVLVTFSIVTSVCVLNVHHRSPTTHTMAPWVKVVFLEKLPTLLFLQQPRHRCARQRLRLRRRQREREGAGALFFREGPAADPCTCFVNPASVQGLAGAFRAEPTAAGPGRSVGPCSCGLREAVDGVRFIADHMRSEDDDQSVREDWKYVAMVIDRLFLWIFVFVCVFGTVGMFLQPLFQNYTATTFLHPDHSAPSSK
Description: as §1, §2, §3

Alpha2B = target: T6, Alpha2B (Homo sapiens, UniProt P18089); assay: PDSP primary binding Alpha2B; settings: 1.5 h; primary binding, 10,000 nM; last figure of the line = mean of the 4 before it; read-out: Alpha2B, PDSP raw data, mean
T6 construct: purchased NIMH Psychoactive Drug Screening Program (PDSP)
T6 sequence (P18089 1-450): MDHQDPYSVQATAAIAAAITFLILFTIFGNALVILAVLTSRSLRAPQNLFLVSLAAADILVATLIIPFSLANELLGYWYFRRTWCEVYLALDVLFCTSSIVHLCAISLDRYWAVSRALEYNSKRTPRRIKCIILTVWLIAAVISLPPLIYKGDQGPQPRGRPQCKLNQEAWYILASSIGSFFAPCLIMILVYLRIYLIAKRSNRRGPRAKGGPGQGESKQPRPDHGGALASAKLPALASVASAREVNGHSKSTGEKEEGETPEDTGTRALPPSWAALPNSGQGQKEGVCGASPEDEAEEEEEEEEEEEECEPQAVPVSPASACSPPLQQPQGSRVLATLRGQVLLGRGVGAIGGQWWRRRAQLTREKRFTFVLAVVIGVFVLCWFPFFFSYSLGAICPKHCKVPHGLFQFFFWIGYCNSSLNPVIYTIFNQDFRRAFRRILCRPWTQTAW
Description: as §1, §2, §3

5-HT7A = target: T7, 5-HT7A (Homo sapiens, UniProt P34969); assay: PDSP primary binding 5-HT7A; settings: 1.5 h; primary binding, 10,000 nM; last figure of the line = mean of the 4 before it; read-out: 5-HT7A, PDSP raw data, mean
T7 construct: purchased NIMH Psychoactive Drug Screening Program (PDSP)
T7 sequence (P34969 1-445 isoform P34969-2): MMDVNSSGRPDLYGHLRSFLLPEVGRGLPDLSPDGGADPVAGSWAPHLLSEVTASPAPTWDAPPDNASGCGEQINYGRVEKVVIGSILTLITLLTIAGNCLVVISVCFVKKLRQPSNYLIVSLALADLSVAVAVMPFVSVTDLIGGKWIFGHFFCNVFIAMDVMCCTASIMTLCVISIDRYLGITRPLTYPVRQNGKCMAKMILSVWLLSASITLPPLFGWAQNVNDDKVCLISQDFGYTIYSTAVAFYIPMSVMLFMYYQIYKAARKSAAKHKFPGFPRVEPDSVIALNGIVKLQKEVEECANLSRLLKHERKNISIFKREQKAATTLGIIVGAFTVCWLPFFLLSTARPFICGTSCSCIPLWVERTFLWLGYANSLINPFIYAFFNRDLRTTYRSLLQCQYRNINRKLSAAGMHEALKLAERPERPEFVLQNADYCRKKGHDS
Description: as §1, §2, §3

Question: What does the source list for `CCc1noc(-c2ncn3c2[C@@H](C)N=C(c2ccccc2F)c2cc(C4CC4)ccc2-3)n1` [Compound 46, (R)-5-(8-Cyclopropyl-6-(2′-fluorophenyl)-4-methyl-4H-benzo[f]imidazo[1,5-a][1,4]diazepin-3-yl)-3-ethyl-1,2,4-oxadiazole]?
Answer: inhibition at 10 µM (5-HT2A): 23.6%; inhibition at 10 µM (Beta2): -6.06%; inhibition at 10 µM (MOR): 25.1%; inhibition at 10 µM (Alpha2C): 11.9%; inhibition at 10 µM (Alpha4Beta2 (Rat Brain)): -5.79%; inhibition at 10 µM (Alpha2B): 44.2%; inhibition at 10 µM (5-HT7A): 4.98%
